The numbers were not newly measured in patent US20250101002A1, “DEUTERATED INFIGRATINIB COMPOUNDS” (QED Therapeutics, Inc., priority 2023, published 2025), which cites them from elsewhere.

The conditions of this series: cholangiocarcinoma indication.

Where a name gives a salt, the structure may show the parent alone.

As for `CCN1CCN(c2ccc(Nc3cc(N(C)C(=O)Nc4c(Cl)c(OC)cc(OC)c4Cl)ncn3)cc2)CC1` [infigratinib monophosphate, Monophosphate Salt Form A of 3-(2,6-dichloro-3,5-dimethoxy-phenyl)-1-{6-4-(4-ethyl-piperazin-1-yl)-phenylaminol-pyrimidin-4-yl}-1-methyl-urea], the common adverse reactions entry (infigratinib monophosphate dosed at 125 mg) was “nail toxicity, stomatitis, dry eye, fatigue, alopecia, palmar-plantar erythrodyesthesia syndrome, arthralgia, dysgeusia, constipation, abdominal pain, dry mouth, eyelash changes, diarrhea, dry skin, decreased appetite, blurred vision, and vomiting”. Moreover, the “additional adverse reactions observed in corresponding clinical trials” value (infigratinib monophosphate) is “ocular toxicity, hyperphosphatemia and soft tissue mineralization, infections, anemia, pyrexia, abdominal pain, hypercalcemia, and sepsis”.
